Test results taken from PMC5228037, “Discovery and Mechanistic Characterization of Selective Inhibitors of H2S-producing Enzyme: 3-Mercaptopyruvate Sulfurtransferase (3MST) Targeting Active-site Cysteine Persulfide” (Scientific Reports, 2017).

Molecular target: T1, 3MST-overexpressing COS7 cells (Mus musculus, UniProt Q99J99)
T1 construct: expressed in transfected cells; host or cells: COS7 (transient)
T1 sequence (Q99J99 1-297): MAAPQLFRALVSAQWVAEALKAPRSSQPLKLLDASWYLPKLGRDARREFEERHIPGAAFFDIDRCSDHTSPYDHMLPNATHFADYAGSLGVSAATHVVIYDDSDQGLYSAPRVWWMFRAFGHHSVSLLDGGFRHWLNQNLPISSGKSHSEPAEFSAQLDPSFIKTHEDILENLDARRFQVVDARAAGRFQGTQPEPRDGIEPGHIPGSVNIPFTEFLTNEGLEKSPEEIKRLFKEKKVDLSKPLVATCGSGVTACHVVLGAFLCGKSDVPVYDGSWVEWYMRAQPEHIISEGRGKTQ
Assay: Live-cell fluorescence imaging with SSP4 in 3MST-overexpressing COS7 cells
Assay type: cell-based
Description: Figure 2 Selectivity assessment of hit compounds for 3MST over other H2S/polysulfides-producing enzymes and rhodanese. (a) 3MST-Inhibitory activity of hit compounds at 10 and 100 μM in cell lysate of 3MST-expressing HEK293 cells. 100 μM 3MP and 100 μM DTT were added to the solution containing 0.1% DMSO as a cosolvent, and the mixture was incubated at 37 °C for 15 min. H2S production was measured by gas chromatography. All data are presented as the mean ± S.D. (100 μM: n = 3 or 4; 10 μM: n = 3). (b) Selectivity assessment of hit compounds at 100 μM towards CBS and CSE. Only DMSO was added to the control sample instead of DMSO solution containing hit compounds. H2S production was monitored by gas chromatography. All data are presented as the mean (n = 3). (c) Detection method for rhodanese activity (Sörbo method). (d) Selectivity assessment of hit compounds towards rhodanese. The results are mean ± S.D. (n = 4, three times). These values were determined based upon the absorbance of [Fe(SCN)3] at 460 nm (Sӧrbo method). […] (e) Fluorescence confocal microscopic images of live COS7 cells transfected with 3MST or an empty vector[9] as a control. […] F/F0 was calculated by dividing the fluorescence intensity of cells after addition of 500 μM 3MP (10 min) by that of cells before addition of 500 μM 3MP (Pre), then the mean F/F0 was determined from 5 cells. […]

- 3MST activity in living cells (SSP4 sulfane sulfur fluorescence after 500 μM 3MP) (1 μM compound, 3MST-overexpressing COS7 cells): almost completely suppressed
- Cell-membrane permeability (concluded from suppression of 3MST activity in live COS7 cells): cell-membrane permeable
Compound: Cc1cc(=O)[nH]c(SCC(=O)c2cccc3ccccc23)n1 [compound 3]
